Measurements from article PMC3401643 (2009).

Biological target: T1, retinoid X receptor α (RXRα) (Homo sapiens, UniProt P19793)
T1 sequence (P19793 223-462): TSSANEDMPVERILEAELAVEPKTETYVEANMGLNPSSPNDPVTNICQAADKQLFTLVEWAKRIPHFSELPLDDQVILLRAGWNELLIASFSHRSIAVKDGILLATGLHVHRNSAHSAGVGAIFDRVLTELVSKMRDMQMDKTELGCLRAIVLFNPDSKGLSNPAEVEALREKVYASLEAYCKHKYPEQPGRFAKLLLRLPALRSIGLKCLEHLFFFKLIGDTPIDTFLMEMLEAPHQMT
Type: binding

Q: `C[C@@H](C(=O)O)c1ccc(-c2ccccc2)c(F)c1` [R-Flur, (R)-flurbiprofen] was tested. Which IC50 did it give?
A: The IC50 was ~75 µM.
